Row | melting point | Compound
1 | 164 to 165 °C | COC1OCC[C@@H]1NC(=O)[C@H](CC(C)C)NC(=O)[C@H](CC(C)C)NC(=O)[C@H](CC(C)C)NC(=O)c1ccc2c(c1)Nc1ccccc1S2 (stereo partly specified)
2 | 97 to 99 °C | Cc1ccc(-c2nc(Cc3cccc(CO)c3)c(C)o2)cc1
3 | 108 to 111 °C | CC1C(=O)Oc2cc(N3CCCCC3)c(Cl)cc21 (stereo unspecified)
4 | 217 to 220 °C | COC(=O)c1ccc2cc(-c3cc4c(c(C56CC7CC(CC(C7)C5)C6)c3)OCO4)ccc2c1
5 | 179 to 181 °C | CC(=O)Oc1cc2c(c3ccccc13)Nc1ccccc1S2=O (stereo unspecified)
6 | 114 to 116 °C | C=CCC(CC=C)(C(=O)O)S(=O)(=O)c1ccc(OC)cc1
7 | 88 to 90 °C | COc1ccc2c(c1)nc(C)n2-c1ccccc1
8 | 209 °C | CC(C)c1[nH]n(-c2c(Cl)cncc2Cl)c2nc(Cc3ccc(CN4CCCC4)c(O)c3)nc(=O)c1-2
9 | 185 to 189 °C | CC(C)(C)c1cc(C(=O)N2CC(O)C2)cc(C(C)(C)C)c1O
10 | 253 to 254 °C | CC(=O)NC[C@H]1CN(c2ccc(C(=O)c3cnc4nc(C)cc(C)n34)cc2)C(=O)O1
11 | 100 to 103 °C | COc1ccc(-c2ccc(-c3ccccc3)nc2-c2ccc(OCCN3CCCC3)cc2)cc1
12 | 48 to 50 °C | COc1ccc(C=O)c(Cl)c1OC(C)=O
13 | 200 to 201 °C | COc1cn(-c2ccc(N3CC4(CC4)OC3=O)cc2F)nc(-c2ccnn2-c2ccccc2)c1=O
14 | 114 to 118 °C | COC(=O)CC(=O)COc1cc(O)c2c(c1)OC(c1ccc(OC)c(O)c1)CC2=O (stereo unspecified)
15 | 44 to 47 °C | COc1c2ccccc2nc2c1c(C)nn2-c1ccccn1
16 | 58 to 60 °C | CCCCCCC1OC1(C(=O)OCC)C(=O)OCC (stereo unspecified)
17 | 130 to 134 °C | CC(C)(C)c1cc(I)c2c(c1)C=NS(=O)(=O)O2
18 | 197 to 199 °C | FC(F)(F)c1ccc(-c2cc(Oc3cccc4cnccc34)nnc2Oc2cccc3cnccc23)cc1
19 | 151 to 152 °C | CCCc1cc(C(O)=S)cc(N)c1Cc1ccccc1
20 | 130 to 131 °C | CNC(=O)c1cc(-c2ccc(SC)cc2)nn(CC(C)C)c1=O
21 | 213 to 216 °C | CS(=O)(=O)c1ccc(-c2cnn(-c3ccc(S(N)(=O)=O)cc3)c(=O)c2-c2ccc(F)cc2)cc1
22 | 74 to 76 °C | CCN(CC)CCN(c1ccc(C(=O)c2ccccc2)cc1)S(C)(=O)=O
23 | 350 °C | CCOC(=O)c1cn(C)c2cnc3c(F)c(Cl)c(N4CCN(c5ccc(C)c(F)c5)CC4)cc3c2c1=O
24 | 84 °C | Cc1cc(-n2ccnc2)c2cccc(OCc3c(Cl)ccc(S(=O)(=O)N4CCC[C@H]4C(=O)N(C)CCN(C)CCCCO)c3Cl)c2n1

Row | melting point | Compound
25 | 191 to 193 °C | Cc1cc(F)ccc1-c1c(O)c(C)c(-c2ccc(F)cc2)oc1=O
26 | 133 to 134 °C | O=C1CCN(Cc2ccc(O)cc2)CC1C(c1ccccc1)c1ccccc1 (stereo unspecified)
27 | 153 to 156 °C | O=C(NCCCCCCC(=O)c1ncco1)c1cc2ccccc2[nH]1
28 | 81 to 84 °C | CC(COc1cccc(Oc2ccccc2)c1)OS(N)(=O)=O (stereo unspecified)
29 | 183 to 185 °C | CC(C)(C)C(C)(C)Nc1nc(NC(C)(C)C(C)(C)C)nc(N2CCNCC2)n1
30 | 144 to 146 °C | CCCc1c(OCCOc2cccc(Sc3ccc(C(=O)O)cc3)c2)ccc(C(C)=O)c1O
31 | 127 to 130 °C | O=C(C1CCN(c2ccncc2)CC1)N1CCC(Oc2ccc(Br)cc2)CC1
32 | 106 to 107 °C | O=C(c1ccc(F)cc1)c1ccc(Br)cc1
33 | 148 to 149 °C | CCOP(=O)(/C=C/c1cn(-c2ccccc2)nc1OCc1ccc(OCc2nc(-c3cccc(C(=O)O)c3)oc2C)c(OC)c1)OCC
34 | 261 to 263 °C | O=Cc1cc(O)cc2cc(-c3ccc(O)cc3)oc12
35 | 231 to 235 °C | Cc1onc(-c2ccccc2)c1-c1ccc(S(=O)(=O)NC(=O)CN)cc1
36 | 210 to 211 °C | Cc1noc(NC(=O)N2CCN(c3cc(-c4cccc(F)c4F)ncn3)CC2)c1C
37 | 119 to 121 °C | CCOC(=O)C1=C(C)NC(=S)N(C(=O)OCC)C1c1cccc(OCc2ccccc2)c1 (stereo unspecified)
38 | > 260 °C | O=C(Nc1nc2ccc(Sc3cnc4ccc(-c5cccc(F)c5)cn34)cc2s1)C1CC1
39 | 206 to 208 °C | CSc1ccc(-c2ccc(C(=O)Nc3ccc4cc(CN5CCCC5)cnc4c3C)cc2)cc1
40 | 147 °C | COC(=O)CN=C(Cc1ccccc1)N1CC2C(=O)CCC(c3ccccc3)(c3ccccc3)C2C1 (stereo unspecified)
41 | > 300 °C | CCNC(=O)Cn1c(=O)c(=O)[nH]c2cc([N+](=O)[O-])c(-n3cccc3)cc21
42 | 72 to 73 °C | CC(C)[C@H](OCc1ccccc1F)[C@H]1[C@H]([N+](=O)[O-])[C@H](c2ccccc2)N[C@@H]1C(=O)NCC(=O)O
43 | 208 to 210 °C | CCCc1c(-c2ccc(OC(F)F)c(OC3CC3)c2)[nH]c2cnn(COCC[Si](C)(C)C)c(=O)c12
44 | 115 to 117 °C | CCOC(=O)C(=CNc1ncnc2ccccc12)C(=O)OCC
45 | 179 to 180 °C | O=C(O)[C@@H]1CC2(CN1C(=O)OCc1ccccc1)OCCO2
46 | 127 to 129 °C | Cc1csc2c(Br)c(C=O)sc12
47 | 86 °C | O=C(O)Cc1ccc(SCCNC(=O)C2Cc3ccccc3N2S(=O)(=O)c2ccc(-c3ccccc3C(F)(F)F)cc2)c(Cl)c1 (stereo unspecified)
48 | 128 to 130 °C | CC(C)Cc1nc2ccc(C#N)cc2c(-c2ccccc2)c1CN

Row | melting point | Compound
49 | 48 to 50 °C | CCOC(=O)c1ccc(N(CC)Cc2ccc(Cl)cc2)cc1
50 | 89.6 °C | O=S(=O)(OCC(F)(F)C(F)F)c1ccc2ccccc2c1
51 | 94 to 96 °C | COC(=O)CCc1ncccc1O
52 | 208 to 210 °C | COc1cc2c(cc1OC)C(=CN1CCN(C(=O)C3CCCCO3)CC1)C(=O)N2 (stereo unspecified)
53 | 95 to 97 °C | CC(C)COC(=O)N[C@H](CC(=O)O)Cc1ccccc1
54 | 138 °C | CCc1noc(-c2ccc(O)cc2)n1
55 | 139 to 140 °C | CC1(C)C=C(c2ccccc2O)c2cc(C#N)ccc2O1
56 | 188 °C | Cc1nc(N)sc1S(=O)(=O)N1CCN(C)CC1
57 | 198 to 199 °C | Nc1nc2c(s1)CCN(CC=Cc1cc(Br)c(N)c(Br)c1)CC2
58 | 171 to 172 °C | CC(=O)c1ccc(Nc2nc(N)c(C(=O)c3sccc3C)s2)cc1
59 | 68 to 70 °C | CC(C)(C)OC(=O)[C@@H]1CCCN2C(=O)CC[C@H](NS(C)(=O)=O)C(=O)N12
60 | 82.4 to 83 °C | CCOC(=O)c1ccc(S(=O)(=O)C(C)(C)C)cc1Cl
61 | 67 to 68.5 °C | CCOC(=O)C(CC(=O)c1ccc(Oc2ccc(Br)cc2)cc1)SC(C)=O (stereo unspecified)
62 | 155 to 157 °C | O=C(CNc1ccc(O)cc1)N1CCC(Cc2ccc(F)cc2)CC1
63 | 146 to 148 °C | COC(=O)COc1cccc2c(CCBr)c(C)oc12
64 | 220 to 222 °C | Cc1scc2c1N(C(=O)N1CC3CN(C)CC3C1)c1ccccc1NC2=O (stereo unspecified)
65 | 117 to 120 °C | Cc1cc(C)nc(N=S(C)C)n1
66 | 81 to 85 °C | Nc1ccc(CCNC(=O)C(F)(F)F)cc1
67 | 158 to 160 °C | N#CC(Cc1ccccc1)=NNc1ccc([N+](=O)[O-])cc1
68 | 168 to 170 °C | CCCCc1nc(C(C)O)c(C(=O)O)n1Cc1ccc(-c2ccccc2C(=O)O)cc1 (stereo unspecified)
69 | 167 to 172 °C | O=C(c1ccccc1)c1ccc2nc(-c3ccc(Br)o3)[nH]c2c1
70 | 57 to 58 °C | O=C1c2ccccc2CN1CCCCSc1ccncc1
71 | 218 to 222 °C | CCn1c([N+](=O)[O-])cnc1-c1nnc2ccc(N)nn12
72 | 147 to 148 °C | C=C(C)c1c(C)oc2c(NC(=O)c3c(Cl)cccc3Cl)cccc12

Row | melting point | Compound
73 | 203 to 204 °C | CC(=O)c1ccc(NS(C)(=O)=O)c(NC(=O)c2ccc(F)cc2F)c1
74 | 168 to 169 °C | O=c1c(Cl)c(OCc2ccc(Cl)cc2Cl)cnn1-c1ccc(Cl)cc1
75 | 203 to 206 °C | COc1ccc(S(N)(=O)=O)cc1C(C)=O
76 | 189 to 191 °C | COc1cc2c(cc1Nc1ncc(Cl)c(Nc3ccc(N4CCOCC4)cc3OC)n1)CCN(CC(=O)N1CCOCC1)CC2
77 | 146 to 148 °C | C#CCNC(=NCCSCc1csc(NC(=N)N)n1)NC#N
78 | 128 to 130 °C | CCOC(=O)C1=C(C)NC(C)=C(C(=O)OCC)C1c1ccccc1C
79 | 227 to 228 °C | CCCc1nn2ncc(C(=O)OCC)c2n1Cc1ccc(-c2ccccc2-c2nc(=O)o[nH]2)cc1
80 | 144 to 145 °C | Nc1ccccc1NC(=O)CCCCCCNC(=O)c1cn2c3c(cccc13)CCC2
81 | 134 to 137 °C | COC(=O)c1cccc(C=NNc2ccc(C)cc2)c1O
82 | 269 to 270 °C | Fc1cc2c(Nc3ccc(F)c(Br)c3)ncnc2cn1
83 | 228 °C | N=c1c2sc(=S)n(-c3ccccc3)c2ncn1NC(=O)c1ccco1
84 | 228 to 230 °C | CN1CCN(C(=O)[C@H]2CC[C@H](c3[nH]nc4c3C(=O)c3c(NC(=O)NN5CCOCC5)cccc3-4)CC2)CC1
85 | 153 to 154 °C | COc1ccc(S(=O)(=O)Nc2ccc(F)cc2NC(=O)c2ccccc2)cc1
86 | 165 to 168 °C | COc1ccc(C(C)(C)C)cc1C(=O)NCCc1ccc(OC)c(S(N)(=O)=O)c1
87 | 63 to 65 °C | CCCCCCCCCC=[N+]([O-])CCCCCCCCCC
88 | 64 to 73 °C | CC1(C)C(=O)C(C)(C)c2cc(C(F)CN3CCN(c4nsc5ccccc45)CC3)ccc21 (stereo unspecified)
89 | 108 to 111 °C | O=C(Nc1ccc(Oc2ccc(C(O)CCC(=O)N3CCOCC3)cc2)c(F)c1)c1ccc(Cl)c(Cl)c1 (stereo unspecified)
90 | 167 to 171 °C | CCNC(=O)/C=C(C)/C=C/C(F)=C(C)/C=C/c1c(C)sc(C)c1C
91 | 208 °C | COC(=O)c1cc2cc(C=O)ccc2[nH]1
92 | 37 to 39 °C | Oc1ccc(Nc2nc(NCc3ccco3)nc(Nc3ccc(Br)cc3)n2)cc1
93 | 188 to 189 °C | Cn1ncc2c1-c1c(Oc3ccc(F)cc3)sc(C(N)=O)c1CC2

Row | Compound | melting point
94 | O=C1C=C(NC(=O)C(=O)c2cn(Cc3c(F)cccc3F)c3ccccc23)CO1 | 252 to 256 °C
95 | COC(=O)c1ccc(CC(C)NCC(O)c2ccccc2)cc1 (stereo unspecified) | 82 to 84 °C
96 | OC1(C#Cc2ccc(-c3ccccc3)cc2)CN2CCC1CC2 (stereo unspecified) | 217 to 218 °C

Reference: a melting point compilation (Tetko et al.; mined from patent text by program, amines drawn as free bases though some values may be those of a salt)
